The values below come from DBAASP.

The structures appear in SMILES notation. Converted amounts (≈) assume the structure as drawn. “And” between values parts separate entries of the source, which are not always exact repeats. Equal entries are not always repeated.

What all share (test): ≥ marks a high value that may be exact or a test limit, other limits are often not marked, values filed in µg/mL are converted to µM
Experiment [1] deals with Bacillus subtilis KCTC 1021.
The subject of experiment [2] is Bacillus subtilis KCTC 1022.
Experiment [3] deals with Bacillus subtilis KCTC 3068.
Experiment [4] relates to Escherichia coli KCTC 1682.
Experiment [5] concerns Escherichia coli KCTC 2571.
Experiment [6] relates to Escherichia coli KCTC 2593.
Experiment [7] deals with Pseudomonas aeruginosa KCTC 1637.
The test system of experiment [8] is Pseudomonas aeruginosa KCTC 2004.
Experiment [9] has as its system Pseudomonas aeruginosa KCTC 2513.
In experiment [10] the test system is Salmonella typhimurium KCTC 1926.
Experiment [11] has as its system Staphylococcus aureus KCTC 1621.
Experiment [12] concerns Staphylococcus aureus KCTC 1916.
Experiment [13] concerns Staphylococcus aureus KCTC 3881.
For experiment [14], the system named is Staphylococcus epidermidis KCTC 1917.
Experiment [15] concerns Pseudomonas aeruginosa CCARM 2095.
Experiment [16] has as its system Pseudomonas aeruginosa CCARM 2109.
Experiment [17] relates to Staphylococcus aureus CCARM 3001.
In experiment [18] the test system is Staphylococcus aureus CCARM 3543.
The test system of experiment [19] is Enterococcus faecium ATCC 51559.
The subject of experiment [20] is Staphylococcus aureus CCARM 3090.
Experiment [21] has as its system Staphylococcus aureus CCARM 3095.
Experiment [22] deals with Neisseria gonorrhoeae F62.
Experiment [23] concerns Neisseria gonorrhoeae FA19.
The subject of experiment [24] is Bacillus anthracis Sterne 34F2.
For experiment [25], the system named is Bacillus subtilis var. niger ATCC 9372.
The test system of experiment [26] is Burkholderia thailandensis.
Experiment [27] deals with Escherichia coli K91BK.
Experiment [28] deals with Alternaria alternata.
Experiment [29] relates to Botrytis cinerea.
Experiment [30] concerns Cladosporium herbarum.
For experiment [31], the system named is Clavibacter michiganensis subsp. michiganensis DSM 46294.
The subject of experiment [32] is Pectobacterium carotovorum subsp. carotovorum DSM 30168.
The subject of experiment [33] is Pseudomonas corrugata DSM 7228.
For experiment [34], the system named is Pseudomonas syringae pv. syringae DSM 10604.
Experiment [35] concerns Pseudomonas syringae pv. tomato DC3000.
Experiment [36] has as its system Staphylococcus aureus 90857.
Experiment [37] concerns Xanthomonas vesicatoria DSM 50861.

For orientation: MIC means the least concentration at which growth counts as inhibited. A high value points to weaker potency.

Turning to `CC[C@H](C)[C@H](NC(=O)CNC(=O)[C@H](CCCN=C(N)N)NC(=O)[C@H](Cc1c[nH]c2ccccc12)NC(=O)[C@@H](NC(=O)[C@H](Cc1cnc[nH]1)NC(=O)[C@H](Cc1cnc[nH]1)NC(=O)[C@H](Cc1ccccc1)NC(=O)[C@@H](N)Cc1ccccc1)[C@@H](C)CC)C(=O)N[C@H](C(=O)N[C@@H](Cc1cnc[nH]1)C(=O)N[C@H](C(=O)NCC(=O)N[C@@H](CCCCN)C(=O)N[C@H](C(=O)N[C@H](C(=O)N[C@@H](Cc1cnc[nH]1)C(=O)N[C@@H](CCCN=C(N)N)C(=O)N[C@@H](CC(C)C)C(=O)N[C@H](C(=O)N[C@H](C(=O)NCC(=O)O)[C@@H](C)O)C(C)C)[C@@H](C)CC)[C@@H](C)O)C(C)C)C(C)C` [FFHHIWRGIVHVGKTIHRLVTG], the minimum inhibitory concentration (MIC) in experiment [1] stood at 4 µM (≈ 10.4 µg/mL); in [2], 4 µM (≈ 10.4 µg/mL); in [3], 4 µM (≈ 10.4 µg/mL); in experiment [4] it was 2 µM (≈ 5.22 µg/mL); in [5], 2 µM (≈ 5.22 µg/mL); in [6], 2 µM (≈ 5.22 µg/mL). The minimum inhibitory concentration (MIC) turned out to be 4 µM (≈ 10.4 µg/mL) in [7]; 4 µM (≈ 10.4 µg/mL) in experiment [8]; 4 µM (≈ 10.4 µg/mL) in experiment [9]; 4 µM (≈ 10.4 µg/mL) in experiment [10]; 2 µM (≈ 5.22 µg/mL) in experiment [11]; 2 µM (≈ 5.22 µg/mL) in [12]. The MIC in experiment [13] and in experiment [14] was 2 µM (≈ 5.22 µg/mL) each time.

Regarding `CC[C@H](C)[C@H](NC(=O)CNC(=O)[C@H](CCCN=C(N)N)NC(=O)[C@H](Cc1ccccc1)NC(=O)[C@@H](NC(=O)[C@H](Cc1cnc[nH]1)NC(=O)[C@H](Cc1cnc[nH]1)NC(=O)[C@H](Cc1c[nH]c2ccccc12)NC(=O)[C@@H](N)Cc1ccccc1)[C@@H](C)CC)C(=O)N[C@H](C(=O)N[C@@H](Cc1cnc[nH]1)C(=O)N[C@H](C(=O)NCC(=O)N[C@@H](CCCCN)C(=O)N[C@H](C(=O)N[C@H](C(=O)N[C@@H](Cc1cnc[nH]1)C(=O)N[C@@H](CCCN=C(N)N)C(=O)N[C@@H](CC(C)C)C(=O)N[C@H](C(=O)N[C@H](C(=O)NCC(=O)O)[C@@H](C)O)C(C)C)[C@@H](C)CC)[C@@H](C)O)C(C)C)C(C)C` [FWHHIFRGIVHVGKTIHRLVTG], the MIC in experiment [1], in experiment [2], in [3], in [4], in [5] and in [6] was 2 µM (≈ 5.22 µg/mL) in each case. Further, the MIC was found to be 4 µM (≈ 10.4 µg/mL) in experiment [7]; 4 µM (≈ 10.4 µg/mL) in experiment [8]; 4 µM (≈ 10.4 µg/mL) in [9]; 2 µM (≈ 5.22 µg/mL) in experiment [10]; 2 µM (≈ 5.22 µg/mL) in experiment [11]; 2 µM (≈ 5.22 µg/mL) in experiment [12]. In addition, the minimum inhibitory concentration (MIC) in [13] and in [14] was 2 µM (≈ 5.22 µg/mL) throughout.

Consider `CC(C)C[C@H](NC(=O)[C@H](CC(C)C)NC(=O)[C@H](Cc1c[nH]c2ccccc12)NC(=O)[C@H](CCCCN)NC(=O)[C@H](CC(C)C)NC(=O)[C@H](Cc1c[nH]c2ccccc12)NC(=O)[C@H](CC(C)C)NC(=O)[C@H](CCCCN)NC(=O)[C@H](Cc1c[nH]c2ccccc12)NC(=O)[C@H](CC(C)C)NC(=O)[C@@H](N)CCCCN)C(N)=O` [KLWKLWLKWLL], for which the MIC in experiment [3] was 8 µM (≈ 12.2 µg/mL); in [4], 8 µM (≈ 12.2 µg/mL); in [15], 8 µM (≈ 12.2 µg/mL); in [16], 16 µM (≈ 24.4 µg/mL); in experiment [7] it was 8 µM (≈ 12.2 µg/mL); in experiment [10] it was 4 µM (≈ 6.1 µg/mL). The MIC is 4 µM (≈ 6.1 µg/mL) in experiment [17], 4 µM (≈ 6.1 µg/mL) in [18], 4 µM (≈ 6.1 µg/mL) in experiment [11] and 8 µM (≈ 12.2 µg/mL) in experiment [14].

In the case of `CC[C@H](C)[C@H](NC(=O)[C@H](CC(C)C)NC(=O)[C@H](CCCCN)NC(=O)[C@@H](NC(=O)[C@@H](NC(=O)[C@H](CCCN=C(N)N)NC(=O)[C@@H](N)CCCCN)[C@@H](C)CC)C(C)C)C(=O)N[C@@H](CCCCN)C(=O)N[C@@H](CCCCN)C(=O)N[C@@H](Cc1c[nH]c2ccccc12)C(=O)N[C@@H](CC(C)C)C(=O)N[C@@H](CCCN=C(N)N)C(N)=O` [KRIVKLIKKWLR], the MIC in [3] is 8 µM and 4 µM; in [19] it was ≥ 64 µM; in experiment [15], 4 µM (≈ 6.32 µg/mL); in [16], ≥ 64 µM; in experiment [7], 4 µM and 8 µM; in [20] it was ≥ 64 µM. For the same molecule, the MIC in [21] is ≥ 64 µM.

With `CC(C)C[C@H](N)C(=O)N[C@H]1CSSC[C@@H](C(=O)N[C@H](C(N)=O)C(C)C)NC(=O)[C@H](C(C)C)NC(=O)[C@H](C)NC(=O)[C@H](Cc2ccccc2)NC(=O)[C@H](CCCN=C(N)N)NC(=O)[C@H](CCCN=C(N)N)NC(=O)[C@H](CCCN=C(N)N)NC(=O)[C@H](C)NC(=O)[C@H](Cc2ccc(O)cc2)NC1=O` [LCYARRRFAVCV], the MIC was 1.1 µM (≈ 1.6 µg/mL) in experiment [22] and 7.65 µM (≈ 11.1 µg/mL) in experiment [23].

Consider `CC[C@H](C)[C@H](NC(=O)[C@H](CCCCN)NC(=O)[C@H](CCCN=C(N)N)NC(=O)CNC(=O)[C@H](CC(C)C)NC(=O)[C@H](CCCN=C(N)N)NC(=O)[C@H](CCCN=C(N)N)NC(=O)[C@H](CC(C)C)NC(=O)CNC(=O)[C@H](CCCN=C(N)N)NC(C)=O)C(=O)N[C@@H](C)C(=O)N[C@@H](Cc1cnc[nH]1)C(=O)NCC(=O)N[C@H](C(=O)N[C@@H](CCCCN)C(=O)N[C@@H](CCCCN)C(=O)N[C@@H](Cc1ccc(O)cc1)C(=O)NCC(=O)N1CCC[C@H]1C(=O)N[C@H](C(=O)N[C@H](C(=O)N[C@@H](CC(C)C)C(=O)N[C@@H](CCCN=C(N)N)C(=O)N[C@H](C(=O)N[C@H](C(=O)N[C@@H](CCCN=C(N)N)C(=O)N[C@H](C(=O)N[C@@H](C)C(=O)N[C@H](C(N)=O)[C@@H](C)O)[C@@H](C)O)[C@@H](C)CC)[C@@H](C)CC)C(C)C)[C@@H](C)O)C(C)C` [RGLRRLGRKIAHGVKKYGPTVLRIIRTAT], for which the minimal inhibitory concentration (MIC) is 2.51 µM (≈ 8.36 µg/mL) in [24], 3.13 µM (≈ 10.4 µg/mL) in [25], ≥ 100 µM in experiment [26] and ≥ 36.1 µM in [27].

`CC(C)C[C@H](NC(=O)[C@H](CCCCN)NC(=O)[C@H](CC(C)C)NC(=O)[C@H](CCCN=C(N)N)NC(=O)[C@H](CCCCN)NC(=O)[C@H](CCCCN)NC(=O)[C@@H](N)CCCN=C(N)N)C(=O)N[C@@H](CC(C)C)C(=O)N[C@@H](CCCCN)C(=O)N[C@@H](CCCN=C(N)N)C(=O)N[C@@H](CC(C)C)C(=O)N[C@H](C(N)=O)C(C)C` [RKKRLKLLKRLV]: the minimal inhibitory concentration (MIC) in experiment [28] was ≥ 64.5 µM; in experiment [29] it was ≥ 64.5 µM; in experiment [30] it was 6.45 µM (≈ 9.99 µg/mL); in experiment [31] it was 0.645 µM (≈ 0.999 µg/mL); in experiment [32] it was 25.8 µM (≈ 40 µg/mL); in experiment [33], 1.29 µM (≈ 2 µg/mL). The MIC in [34] was 1.29 µM (≈ 2 µg/mL); in [35], 0.645 µM (≈ 0.999 µg/mL); in [36] it was 25 µM (≈ 38.8 µg/mL); in [37], 1.29 µM (≈ 2 µg/mL).
